Measured values reported in article PMC9097471, “Development of Selective Phosphatidylinositol 5-Phosphate 4-Kinase γ Inhibitors with a Non-ATP-competitive, Allosteric Binding Mode” (Journal of Medicinal Chemistry, 2022).

How the values were obtained:
PI5P4Kγ-WT [1] = target: T1, PI5P4Kγ-WT (Homo sapiens, UniProt Q8TBX8); assay: InCell Pulse cellular target engagement (thermal stabilisation) in HEK293 cells; type: cell-based
T1 sequence (Q8TBX8 1-421): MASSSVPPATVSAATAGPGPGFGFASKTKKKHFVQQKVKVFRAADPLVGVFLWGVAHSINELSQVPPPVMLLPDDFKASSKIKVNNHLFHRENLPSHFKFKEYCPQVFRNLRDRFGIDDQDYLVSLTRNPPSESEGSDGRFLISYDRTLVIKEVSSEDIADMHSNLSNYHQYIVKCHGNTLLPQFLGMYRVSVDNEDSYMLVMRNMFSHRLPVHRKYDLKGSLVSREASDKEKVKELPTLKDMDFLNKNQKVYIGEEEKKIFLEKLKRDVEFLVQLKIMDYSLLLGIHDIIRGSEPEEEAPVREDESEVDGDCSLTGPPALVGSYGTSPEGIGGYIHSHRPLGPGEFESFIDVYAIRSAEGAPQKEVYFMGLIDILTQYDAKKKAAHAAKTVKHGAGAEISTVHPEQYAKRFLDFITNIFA
Protocol: The binding of compounds to PI5P4Kγ in intact cells was assessed using an InCell Pulse thermal stabilisation assay (DiscoverX). […] The plate was then incubated for 60 min in the dark prior to luminescence reading using a Pherastar FSX plate reader (BMG Labtech).
Statistical analysis was performed using nonparametric testing in Prism 8 (GraphPad). Activity pIC50 values and in vivo binding pEC50 values were estimated using a 4-parameter fit (Dotmatics).

[2] = Chromatographic LogD (HPLC method); type: physicochemical; details: pH 7.4, read-out: mchrom log D7.4
Protocol: 5-100% gradient of MeCN in 50mM NH4OAc in H 2O adjusted to pH 7.4. […]

PI5P4Kγ-WT [3] = target: T1, PI5P4Kγ-WT; assay: Thermal shift assay; details: read-out: ΔTm PI5P4Kγ WT, thermal shift, compound 63 μM
[4] = Liver microsomal stability; type: in vitro ADME; details: liver microsomes; Human liver microsomal hepatic stability; read-out: HLM t1/2
PI5P4Kα = target: T2, PI5P4Kα (Homo sapiens, UniProt P48426); assay: Adapta TR-FRET assay (Thermo Fisher); type: biochemical; design: purchased Thermo Fisher
T2 sequence (P48426 1-406): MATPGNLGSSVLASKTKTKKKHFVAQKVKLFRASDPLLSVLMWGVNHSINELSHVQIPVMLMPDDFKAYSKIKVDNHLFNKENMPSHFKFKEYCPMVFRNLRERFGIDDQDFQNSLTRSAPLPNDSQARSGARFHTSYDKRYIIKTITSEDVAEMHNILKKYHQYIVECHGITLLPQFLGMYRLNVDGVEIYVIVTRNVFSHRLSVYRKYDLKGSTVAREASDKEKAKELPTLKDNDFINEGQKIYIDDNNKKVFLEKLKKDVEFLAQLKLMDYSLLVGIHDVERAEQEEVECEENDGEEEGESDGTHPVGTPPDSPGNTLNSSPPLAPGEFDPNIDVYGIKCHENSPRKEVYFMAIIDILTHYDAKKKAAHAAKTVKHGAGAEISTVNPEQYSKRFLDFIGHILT
Protocol: Table S7. PI5P4Kα adapta assay results for compounds 1 and 40.a
Compound PI5P4Kα adapta IC50 (nM) […]
a The experiments were run by Thermo Fisher. This assay is a TR-FRET based assay using an Eu-anti-ADP antibody, the conditions are: the 2X PIP4Kα/PI(5)P mixture is prepared in 50 mM HEPES pH 7.5, 0.1% CHAPS, 1 mM EGTA, 4 mM MgCl2. The final 10 μL Kinase Reaction consists of 1.5 - 6 ng PIP4Kα and 50 μM PI(5)P in 32.5 mM HEPES pH 7.5, 0.05% CHAPS, 0.5 mM EGTA, 2 mM MgCl2. After the 1 hour Kinase Reaction incubation, 5 μL of Detection Mix is added. The Detection mix consists of EDTA (30mM), Eu-anti-ADP antibody (6 nM) and ADP tracer in TR-FRET buffer. The detection mix contains the EC60 concentration of tracer for 5-

PI5P4Kα-WT = target: T3, PI5P4Kα-WT (Homo sapiens, UniProt P48426); assay: ADP-Glo inhibition assay; details: ADP-Glo
T3 sequence (P48426 1-406): T2 sequence (P48426 1-406)
Description: (§1) To enable direct comparisons, Promega’s ADP-Glo reporter assay was developed using a mutant form of the kinase. […] To mitigate concerns about being misled by the use of the PI5P4Kγ+ construct and the possible introduction of PI5P4Kα activity into the molecules, our screening cascade included the measurement of ADP-Glo activity at PI5P4Kα-WT (and PI5P4Kβ-WT to fully understand emerging selectivity profiles).

Caco-2 cell permeability = type: in vitro ADME; details: human; for Papp A→B at 1 h, 10 µM: Caco-2, apical-to-basolateral; for efflux ratio at 1 h, 10 µM: Caco-2 efflux ratio (B-A/A-B), read-out: ER
Protocol: Permeability: bi-directional Caco-2 cell permeability was performed by Charles River Laboratories Inc. (ADME-SOP-49). Briefly, compounds were administered at 10 µM (1% DMSO final) to the apical or basolateral side of a polarised Caco-2 cell monolayer, then incubated at 37 °C for 60 minutes before appearance on the opposite side of the monolayer was determined by mass spectrometry. The efflux ratio (ER) is calculated from the ratio of B-A […]

Plasma protein binding = type: in vitro ADME; details: Mouse plasma protein binding; read-out: mPPB (converted)
Protocol: Plasma protein binding analysis was performed by Charles River Laboratories Inc. (ADME-SOP-90). Briefly, compounds in DMSO (10 µM, 0.5% DMSO final) were added to mouse plasma and dialysed against buffer for 4 hours at 37 °C. The compound concentration in each of the plasma and buffer compartments was determined by mass spectrometry and used to calculate the percentage compound bound. […]

PI5P4Kβ-WT = target: T4, PI5P4Kβ-WT (Homo sapiens, UniProt P78356); assay: ADP-Glo inhibition assay; details: ADP-Glo
T4 sequence (P78356 1-416): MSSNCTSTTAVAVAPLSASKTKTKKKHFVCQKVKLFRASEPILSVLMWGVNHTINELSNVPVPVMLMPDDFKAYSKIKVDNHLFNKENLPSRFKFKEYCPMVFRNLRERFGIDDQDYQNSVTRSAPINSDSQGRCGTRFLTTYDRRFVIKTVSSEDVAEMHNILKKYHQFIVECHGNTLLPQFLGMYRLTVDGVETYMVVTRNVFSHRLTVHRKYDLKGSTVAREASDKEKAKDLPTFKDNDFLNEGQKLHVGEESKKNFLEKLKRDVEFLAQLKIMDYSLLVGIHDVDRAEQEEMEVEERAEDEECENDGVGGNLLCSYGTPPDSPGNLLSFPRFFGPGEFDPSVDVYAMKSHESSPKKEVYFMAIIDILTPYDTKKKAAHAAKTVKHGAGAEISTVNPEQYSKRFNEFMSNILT
Description: as §1

| IC50 (PI5P4Kγ-WT [1]; InCell Pulse, new data) | IC50 (PI5P4Kα-WT; read-out: PI5P4Kα IC50, new data) | IC50 (PI5P4Kβ-WT; read-out: PI5P4Kβ IC50, new data) | SMILES | chromatographic logD [2] | ΔTm at 63 µM (PI5P4Kγ-WT [3]) | half-life at 1 µM [4] | IC50 (PI5P4Kα) | PI5P4Kα pIC50 (PI5P4Kα-WT) | Papp A→B at 1 h, 10 µM (Caco-2 cell permeability) | efflux ratio at 1 h, 10 µM (Caco-2 cell permeability) | fraction unbound at 4 h, 10 µM (Plasma protein binding) | PI5P4Kβ pIC50 (PI5P4Kβ-WT) | cellular target engagement with PI5P4Kγ-WT (PI5P4Kγ-WT [1]; InCell Pulse) | Target engagement PI5P4Kγ WT pIC50 (PI5P4Kγ-WT [1]; InCell Pulse in intact cells) |
| --- | --- | --- | --- | --- | --- | --- | --- | --- | --- | --- | --- | --- | --- | --- |
| 2.5 µM | > 50 µM | > 25 µM | FC(F)(F)c1ccccc1-c1nc(NCc2cccs2)c2ccccc2n1 [Compound 1, NIH-12848, reference compound] | 6.3 | 4.7 °C | 21 min | > 30 µM | <4.3 | 6.4 ×10⁻⁶ cm/s | 0.9 | < 0.01 | <4.6 | – | – |
| – | – | – | CC(C)c1ccccc1-c1nc(NCc2ccccn2)c2c(ccn2C)n1 [Compound 40] | 4.5 | 6.9 °C | 47 min | > 30 µM | <4.3 | 122 ×10⁻⁶ cm/s | 0.4 | 0.01 | <4.6 | submicromolar activity | 6.1 |
